In patent US20130012432A1, “Peptides for Treatment of Obesity” (Novo Nordisk A/S, priority 2010, published 2013):
≈ marks a conversion by molar mass, not a printed value. Positions of bridges follow the written chain, without caps; N, C: chain ends. Non-standard residues stand in square brackets, D forms with d. Residues, ends and D or L forms follow the SMILES beside them. Groups on a side chain read outwards from the residue. *: point of attachment. Palmitoyl(16-(5-tetrazolyl)) = O=C(CCCCCCCCCCCCCCCc1nnn[nH]1)*; Lys(CH2CO2H)2 = N[C@@H](CCCCN(CC(=O)O)CC(=O)O)C(=O)O; C18 diacid = O=C(O)CCCCCCCCCCCCCCCCC(=O)*; C17 diacid = O=C(O)CCCCCCCCCCCCCCCC(=O)*; C16 diacid = O=C(O)CCCCCCCCCCCCCCC(=O)*; Hyp = O=C(O)[C@@H]1C[C@@H](O)CN1; NTA = O=C(O)CN(CC(=O)O)CC(=O)*; hCys = N[C@@H](CCS)C(=O)O; Orn = NCCC[C@H](N)C(=O)O; Dap = NC[C@H](N)C(=O)O; AEEA = NCCOCCOCC(=O)O

Experiment: physchem
Description: From a stock solution in vehicle, either H2O or 10 mM phosphate, containing 1 mg (as weighed) compound per ml, 8-11 aliquots are withdrawn and pH-adjusted individually with HCl/NaOH, to cover the whole pH range.

SMILES	solubility (pH 6.2, Solubility Conc.) [µM]	solubility (pH 6.8, Solubility Conc.) [µM]	solubility (pH 7.1, Solubility Conc.) [µM]	solubility (pH 7.4, Solubility Conc.) [µM]	solubility (pH 7.6, Solubility Conc.) [µM]	solubility (pH 7.8, Solubility Conc.) [µM]	solubility (pH 7.9, Solubility Conc.) [µM]	solubility (pH 6.9, Solubility Conc.) [µM]	solubility (pH 7.7, Solubility Conc.) [µM]	solubility (pH 8, Solubility Conc.) [µM]	solubility (pH 7.5, Solubility Conc.) [µM]	solubility (pH 7.3, Solubility Conc.) [µM]	also measured
CC(=O)N[C@H]1CCC(=O)NCCC[C@@H](C(=O)N2CCC[C@H]2C(=O)N2CCC[C@H]2C(=O)N[C@@H](CCCNC(=N)N)C(=O)N[C@@H](CC(=O)O)C(=O)N[C@@H](CCCCN(CC(=O)O)CC(=O)O)C(=O)N[C@@H](CCCCNC(=O)COCCOCCNC(=O)CCCCCCCCCCCCCCCc2nnn[nH]2)C(N)=O)NC(=O)[C@H](Cc2c[nH]c3ccccc23)NC(=O)[C@H](CCCNC(=N)N)NC(=O)[C@@H](Cc2ccccc2)NC(=O)[C@H](Cc2c[nH]cn2)NC1=O [Example 54, Ac-c[Glu-His-D-Phe-Arg-Trp-Orn]-Pro-Pro-Arg-Asp-Lys(biscarboxymethyl)-Lys[(2-{2-[16-(tetrazol-5-yl)hexadecanoylamino]ethoxy}ethoxy)acetyl]-NH2] (Ac-EH[dF]RW[Orn]PPRD[Lys(CH2CO2H)2]K([AEEA-Palmitoyl(16-(5-tetrazolyl))])-NH2; lactam 1-6)	23 (≈ 50.6 µg/mL)	43 (≈ 94.6 µg/mL)	95 (≈ 209 µg/mL)	221 (≈ 486 µg/mL)	202 (≈ 445 µg/mL)	200 (≈ 440 µg/mL)	217 (≈ 478 µg/mL)	–	–	–	–	–	solubility (pH 5.5, Solubility Conc.): 22 µM (≈ 48.4 µg/mL); solubility (pH 7, Solubility Conc.): 78 µM (≈ 172 µg/mL)
CC(=O)N[C@H]1CCCNC(=O)C[C@@H](C(=O)N2CCC[C@H]2C(=O)N2CCC[C@H]2C(=O)N[C@@H](Cc2c[nH]cn2)C(=O)N[C@@H](CCC(=O)O)C(=O)N[C@@H](CCCCN(CC(=O)O)CC(=O)O)C(=O)N[C@@H](CCCCNC(=O)COCCOCCNC(=O)CCCCCCCCCCCCCCCC(=O)O)C(N)=O)NC(=O)[C@H](Cc2c[nH]c3ccccc23)NC(=O)[C@H](CCCNC(=N)N)NC(=O)[C@@H](Cc2ccccc2)NC(=O)[C@H](Cc2c[nH]cn2)NC1=O [Example 55, Ac-c[Orn-His-D-Phe-Arg-Trp-Asp]-Pro-Pro-His-Glu-Lys(biscarboxymethyl)-Lys({2-[2-(16-carboxyhexadecanoylamino)ethoxy]ethoxy}acetyl)-NH2] (Ac-[Orn]H[dF]RWDPPHE[Lys(CH2CO2H)2]K([AEEA-C17 diacid])-NH2; lactam 1-6)	–	–	–	–	422 (≈ 910 µg/mL)	–	–	426 (≈ 919 µg/mL)	435 (≈ 939 µg/mL)	426 (≈ 919 µg/mL)	–	–	solubility (pH 6.3, Solubility Conc.): 152 µM (≈ 328 µg/mL); solubility (pH 6.5, Solubility Conc.): 236 µM (≈ 509 µg/mL); solubility (pH 6.6, Solubility Conc.): 337 µM (≈ 727 µg/mL); solubility (pH 6.7, Solubility Conc.): 436 µM (≈ 941 µg/mL); solubility (pH 7.2, Solubility Conc.): 414 µM (≈ 893 µg/mL)
CC(=O)N[C@H]1CCC(=O)NCCC[C@@H](C(=O)N2C[C@H](O)C[C@H]2C(=O)N2C[C@H](O)C[C@H]2C(=O)N[C@@H](CCCNC(=N)N)C(=O)N[C@@H](CC(=O)O)C(=O)N[C@@H](CCCCN(CC(=O)O)CC(=O)O)C(=O)N[C@@H](CCCCNC(=O)COCCOCCNC(=O)CCCCCCCCCCCCCCCc2nnn[nH]2)C(N)=O)NC(=O)[C@H](Cc2c[nH]c3ccccc23)NC(=O)[C@H](CCCNC(=N)N)NC(=O)[C@@H](Cc2ccccc2)NC(=O)[C@H](Cc2c[nH]cn2)NC1=O [Example 56, Ac-c[Glu-His-D-Phe-Arg-Trp-Orn]-Hyp-Hyp-Arg-Asp-Lys(biscarboxymethyl)-Lys[(2-{2-[16-(tetrazol-5-yl)hexadecanoylamino]ethoxy}ethoxy)acetyl]-NH2] (Ac-EH[dF]RW[Orn][Hyp][Hyp]RD[Lys(CH2CO2H)2]K([AEEA-Palmitoyl(16-(5-tetrazolyl))])-NH2; lactam 1-6)	–	47 (≈ 105 µg/mL)	79 (≈ 176 µg/mL)	169 (≈ 377 µg/mL)	521 (≈ 1160 µg/mL)	524 (≈ 1170 µg/mL)	–	–	408 (≈ 911 µg/mL)	392 (≈ 875 µg/mL)	395 (≈ 882 µg/mL)	–	–
CC(=O)N[C@H]1CCSSC[C@@H](C(=O)N2CCC[C@H]2C(=O)N2CCC[C@H]2C(=O)N[C@@H](CCCCN)C(=O)N[C@@H](CCC(=O)O)C(=O)N[C@@H](CCCCN(CC(=O)O)CC(=O)O)C(=O)N[C@@H](CCCCNC(=O)COCCOCCNC(=O)CCCCCCCCCCCCCCCc2nnn[nH]2)C(N)=O)NC(=O)[C@H](Cc2c[nH]c3ccccc23)NC(=O)[C@H](CCCNC(=N)N)NC(=O)[C@@H](Cc2ccccc2)NC(=O)[C@H](CO)NC1=O [Example 58, Ac-c[homoCys-Ser-D-Phe-Arg-Trp-Cys]-Pro-Pro-Lys-Glu-Lys(biscarboxymethyl)-Lys[(2-{2-[16-(tetrazol-5-yl)hexadecanoylamino]ethoxy}ethoxy)acetyl]-NH2] (Ac-[hCys]S[dF]RWCPPKE[Lys(CH2CO2H)2]K([AEEA-Palmitoyl(16-(5-tetrazolyl))])-NH2; disulfide 1-6)	21 (≈ 44.7 µg/mL)	–	–	–	385 (≈ 820 µg/mL)	–	–	–	–	–	80 (≈ 170 µg/mL)	–	solubility (pH 3, Solubility Conc.): 539 µM (≈ 1150 µg/mL); solubility (pH 3.9, Solubility Conc.): 56 µM (≈ 119 µg/mL); solubility (pH 5.9, Solubility Conc.): 8 µM (≈ 17 µg/mL); solubility (pH 6.5, Solubility Conc.): 37 µM (≈ 78.8 µg/mL); solubility (pH 6.6, Solubility Conc.): 30 µM (≈ 63.9 µg/mL); solubility (pH 8.6, Solubility Conc.): 250 µM (≈ 532 µg/mL); solubility (pH 9, Solubility Conc.): 365 µM (≈ 777 µg/mL)
CC(=O)N[C@H]1CCSSC[C@@H](C(=O)N[C@@H](CO)C(=O)N2CCC[C@H]2C(=O)N[C@@H](CCCCN)C(=O)N[C@@H](CCC(=O)O)C(=O)N[C@@H](CCCCN(CC(=O)O)CC(=O)O)C(=O)N[C@@H](CCCCNC(=O)COCCOCCNC(=O)CCCCCCCCCCCCCCC(=O)O)C(N)=O)NC(=O)[C@H](Cc2c[nH]c3ccccc23)NC(=O)[C@H](CCCNC(=N)N)NC(=O)[C@@H](Cc2ccccc2)NC(=O)[C@H](Cc2c[nH]cn2)NC1=O [Example 60, Ac-c[homoCys-His-D-Phe-Arg-Trp-Cys]-Ser-Pro-Lys-Glu-Lys(biscarboxymethyl)-Lys({2-[2-(15-carboxypentadecanoylamino)ethoxy]ethoxy}acetyl)-NH2] (Ac-[hCys]H[dF]RWCSPKE[Lys(CH2CO2H)2]K([AEEA-C16 diacid])-NH2; disulfide 1-6)	171 (≈ 364 µg/mL)	457 (≈ 974 µg/mL)	–	–	456 (≈ 972 µg/mL)	461 (≈ 983 µg/mL)	450 (≈ 959 µg/mL)	–	–	–	–	459 (≈ 978 µg/mL)	solubility (pH 4, Solubility Conc.): 424 µM (≈ 904 µg/mL); solubility (pH 5.4, Solubility Conc.): 126 µM (≈ 269 µg/mL); solubility (pH 6, Solubility Conc.): 133 µM (≈ 283 µg/mL); solubility (pH 6.4, Solubility Conc.): 415 µM (≈ 885 µg/mL)
CC(=O)N[C@H]1CCSSC[C@@H](C(=O)N2CCC[C@H]2C(=O)N2CCC[C@H]2C(=O)N[C@@H](CCCCN)C(=O)N[C@@H](CC(=O)O)C(=O)N[C@@H](CNC(=O)CN(CC(=O)O)CC(=O)O)C(=O)N[C@@H](CCCCNC(=O)COCCOCCNC(=O)CCCCCCCCCCCCCCCc2nnn[nH]2)C(N)=O)NC(=O)[C@H](Cc2c[nH]c3ccccc23)NC(=O)[C@H](CCCNC(=N)N)NC(=O)[C@@H](Cc2ccccc2)NC(=O)[C@H](Cc2c[nH]cn2)NC1=O [Example 61, Ac-c[homoCys-His-D-Phe-Arg-Trp-Cys]-Pro-Pro-Lys-Asp-Dap(BCMA)-Lys[(2-{2-[16-(tetrazol-5-yl)hexadecanoylamino]ethoxy}ethoxy)acetyl]-NH2] (Ac-[hCys]H[dF]RWCPPKD[Dap](NTA)K([AEEA-Palmitoyl(16-(5-tetrazolyl))])-NH2; disulfide 1-6)	–	46 (≈ 100 µg/mL)	256 (≈ 558 µg/mL)	713 (≈ 1550 µg/mL)	–	–	–	–	805 (≈ 1760 µg/mL)	–	–	630 (≈ 1370 µg/mL)	solubility (pH 3.3, Solubility Conc.): 623 µM (≈ 1360 µg/mL); solubility (pH 4.4, Solubility Conc.): 575 µM (≈ 1250 µg/mL); solubility (pH 4.8, Solubility Conc.): 584 µM (≈ 1270 µg/mL); solubility (pH 5.3, Solubility Conc.): 32 µM (≈ 69.8 µg/mL); solubility (pH 6.3, Solubility Conc.): 26 µM (≈ 56.7 µg/mL)
CC(=O)N[C@H]1CCSSC[C@@H](C(=O)N[C@@H](CO)C(=O)N2CCC[C@H]2C(=O)N[C@@H](Cc2c[nH]cn2)C(=O)N[C@@H](CCC(=O)O)C(=O)N[C@@H](CCCCN(CC(=O)O)CC(=O)O)C(=O)N[C@@H](CCCCNC(=O)COCCOCCNC(=O)CCCCCCCCCCCCCCCCC(=O)O)C(N)=O)NC(=O)[C@H](Cc2c[nH]c3ccccc23)NC(=O)[C@H](CCCNC(=N)N)NC(=O)[C@@H](Cc2ccccc2)NC(=O)[C@H](Cc2c[nH]cn2)NC1=O [Example 62, Ac-c[homoCys-His-D-Phe-Arg-Trp-Cys]-Ser-Pro-His-Glu-Lys(biscarboxymethyl)-Lys({2-[2-(17-carboxyheptadecanoylamino)ethoxy]ethoxy}acetyl)-NH2] (Ac-[hCys]H[dF]RWCSPHE[Lys(CH2CO2H)2]K([AEEA-C18 diacid])-NH2; disulfide 1-6)	–	–	–	243 (≈ 527 µg/mL)	–	–	245 (≈ 531 µg/mL)	82 (≈ 178 µg/mL)	251 (≈ 544 µg/mL)	233 (≈ 505 µg/mL)	–	241 (≈ 523 µg/mL)	solubility (pH 3.4, Solubility Conc.): 235 µM (≈ 510 µg/mL); solubility (pH 5, Solubility Conc.): 15 µM (≈ 32.5 µg/mL); solubility (pH 6.7, Solubility Conc.): 41 µM (≈ 88.9 µg/mL); solubility (pH 7, Solubility Conc.): 42 µM (≈ 91.1 µg/mL)
CC(=O)N[C@H]1CSSC[C@@H](C(=O)N2CCC[C@H]2C(=O)N2CCC[C@H]2C(=O)N[C@@H](CCCCN)C(=O)N[C@@H](CCC(=O)O)C(=O)N[C@@H](CCC(=O)O)C(=O)N[C@@H](CCCCNC(=O)COCCOCCNC(=O)CCCCCCCCCCCCCCC(=O)O)C(N)=O)NC(=O)CNC(=O)[C@H](Cc2c[nH]c3ccccc23)NC(=O)[C@H](CCCNC(=N)N)NC(=O)[C@@H](Cc2ccccc2)NC(=O)[C@H](Cc2c[nH]cn2)NC(=O)[C@H](CCC(=O)O)NC1=O [Example 68, Ac-c[Cys-Glu-His-D-Phe-Arg-Trp-Gly-Cys]-Pro-Pro-Lys-Glu-Glu-Lys({2-[2-(15-carboxypentadecanoylamino)ethoxy]ethoxy}acetyl)-NH2] (Ac-CEH[dF]RWGCPPKEEK([AEEA-C16 diacid])-NH2; disulfide 1-8)	164 (≈ 361 µg/mL)	–	–	–	–	–	188 (≈ 413 µg/mL)	182 (≈ 400 µg/mL)	–	183 (≈ 402 µg/mL)	184 (≈ 405 µg/mL)	181 (≈ 398 µg/mL)	solubility (pH 4, Solubility Conc.): 167 µM (≈ 367 µg/mL); solubility (pH 5.1, Solubility Conc.): 87 µM (≈ 191 µg/mL); solubility (pH 5.8, Solubility Conc.): 102 µM (≈ 224 µg/mL)
